Experimental data from PubChem BioAssay (NCI).
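Abbreviation: GI50, concentration required for 50% inhibition of growth. At the TGI there is no net growth.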

Experiments:
Assay in all cases: NCI-60 cell line screen, 384-well format
[1] = test system: 786-0 renal
[2] = test system: A498 renal
[3] = test system: A549 NSCLC
[4] = test system: ACHN renal
[5] = test system: BT-549 breast
[6] = test system: CAKI-1 renal
[7] = test system: CCRF-CEM leukemia
[8] = test system: COLO 205 colon
[9] = test system: DU-145 prostate
[10] = test system: EKVX NSCLC
[11] = test system: HCC-2998 colon
[12] = test system: HCT-116 colon
[13] = test system: HCT-15 colon
[14] = test system: HL-60(TB) leukemia
[15] = test system: HOP-62 NSCLC
[16] = test system: HOP-92 NSCLC
[17] = test system: HS 578T breast
[18] = test system: HT29 colon
[19] = test system: IGROV1 ovarian
[20] = test system: K-562 leukemia
[21] = test system: KM12 colon
[22] = test system: LOX IMVI melanoma
[23] = test system: M14 melanoma
[24] = test system: MALME-3M melanoma
[25] = test system: MCF7 breast
[26] = test system: MDA-MB-231 breast
[27] = test system: MDA-MB-435 melanoma
[28] = test system: MDA-MB-468 breast
[29] = test system: MOLT-4 leukemia
[30] = test system: NCI-H226 lung
[31] = test system: NCI-H23 lung
[32] = test system: NCI-H322M lung
[33] = test system: NCI-H460 NSCLC
[34] = test system: NCI-H522 lung
[35] = test system: NCI/ADR-RES ovarian
[36] = test system: OVCAR-3 ovarian
[37] = test system: OVCAR-4 ovarian
[38] = test system: OVCAR-5 ovarian
[39] = test system: OVCAR-8 ovarian
[40] = test system: PC-3 prostate
[41] = test system: RPMI-8226 leukemia
[42] = test system: RXF 393 renal
[43] = test system: SF-268 CNS
[44] = test system: SF-295 CNS
[45] = test system: SF-539 CNS
[46] = test system: SK-MEL-28 melanoma
[47] = test system: SK-MEL-5 melanoma
[48] = test system: SK-OV-3 ovarian
[49] = test system: SN12C renal
[50] = test system: SNB-19 CNS
[51] = test system: SNB-75 CNS
[52] = test system: SW-620 colon
[53] = test system: T-47D breast
[54] = test system: TK-10 renal
[55] = test system: U251 glioblastoma
[56] = test system: UACC-257 melanoma
[57] = test system: UACC-62 melanoma
[58] = test system: UO-31 renal

Structure (SMILES): CN1CCN(c2ccc(C(=O)Nc3cc(-c4cccc(NS(=O)(=O)c5ccccc5)c4)[nH]n3)cc2)CC1
- GI50 [1]: 1560 nM
- TGI [1]: 2980 nM
- GI50 [2]: 2070 nM
- TGI [2]: 3530 nM
- GI50 [3]: 1780 nM
- TGI [3]: 3300 nM
- GI50 [4]: 2150 nM
- TGI [4]: 4660 nM
- GI50 [5]: 1170 nM
- TGI [5]: 2420 nM
- GI50 [6]: 1670 nM
- TGI [6]: 3080 nM
- GI50 [7]: 1620 nM
- TGI [7]: 2990 nM
- GI50 [8]: 891 nM
- TGI [8]: 2140 nM
- GI50 [9]: 2330 nM
- TGI [9]: 4970 nM
- GI50 [10]: 2100 nM
- TGI [10]: 4870 nM
- GI50 [11]: 1470 nM
- TGI [11]: 3010 nM
- GI50 [12]: 1660 nM
- TGI [12]: 3080 nM
- GI50 [13]: 3500 nM
- TGI [13]: 8850 nM
- GI50 [14]: 2480 nM
- TGI [14]: 3960 nM
- GI50 [15]: 1590 nM
- TGI [15]: 3310 nM
- GI50 [16]: 1370 nM
- TGI [16]: 2870 nM
- GI50 [17]: 1310 nM
- TGI [17]: 2600 nM
- GI50 [18]: 1520 nM
- TGI [18]: 2930 nM
- GI50 [19]: 628 nM
- TGI [19]: 1930 nM
- GI50 [20]: 1450 nM
- TGI [20]: 2790 nM
- GI50 [21]: 25 nM
- TGI [21]: 1380 nM
- GI50 [22]: 1620 nM
- TGI [22]: 3010 nM
- GI50 [23]: 1650 nM
- TGI [23]: 3030 nM
- GI50 [24]: 1640 nM
- TGI [24]: 3010 nM
- GI50 [25]: 1410 nM
- TGI [25]: 2920 nM
- GI50 [26]: 1520 nM
- TGI [26]: 3300 nM
- GI50 [27]: 1960 nM
- TGI [27]: 3410 nM
- GI50 [28]: 2090 nM
- TGI [28]: 3620 nM
- GI50 [29]: 1200 nM
- TGI [29]: 2440 nM
- GI50 [30]: 111 nM
- TGI [30]: 11600 nM
- GI50 [31]: 1910 nM
- TGI [31]: 3750 nM
- GI50 [32]: 1930 nM
- TGI [32]: 4220 nM
- GI50 [33]: 1690 nM
- TGI [33]: 3150 nM
- GI50 [34]: 1880 nM
- TGI [34]: 3550 nM
- GI50 [35]: > 100000 nM
- TGI [35]: > 100000 nM
- GI50 [36]: 1620 nM
- TGI [36]: 3030 nM
- GI50 [37]: 1790 nM
- TGI [37]: 4070 nM
- GI50 [38]: 1890 nM
- TGI [38]: 3940 nM
- GI50 [39]: 1810 nM
- TGI [39]: 3350 nM
- GI50 [40]: 2570 nM
- TGI [40]: 7410 nM
- GI50 [41]: 1450 nM
- TGI [41]: 2780 nM
- GI50 [42]: 1240 nM
- TGI [42]: 2520 nM
- GI50 [43]: 1230 nM
- TGI [43]: 2700 nM
- GI50 [44]: 1890 nM
- TGI [44]: 3400 nM
- GI50 [45]: 838 nM
- TGI [45]: 2110 nM
- GI50 [46]: 2170 nM
- TGI [46]: 3630 nM
- GI50 [47]: 1460 nM
- TGI [47]: 2790 nM
- GI50 [48]: 1160 nM
- TGI [48]: 2440 nM
- GI50 [49]: 2440 nM
- TGI [49]: 8740 nM
- GI50 [50]: 2020 nM
- TGI [50]: 4480 nM
- GI50 [51]: 949 nM
- TGI [51]: 2370 nM
- GI50 [52]: 1840 nM
- TGI [52]: 3330 nM
- GI50 [53]: 1370 nM
- TGI [53]: 2690 nM
- GI50 [54]: 2270 nM
- TGI [54]: 4560 nM
- GI50 [55]: 1640 nM
- TGI [55]: 3030 nM
- GI50 [56]: 1780 nM
- TGI [56]: 3180 nM
- GI50 [57]: 1800 nM
- TGI [57]: 3200 nM
- GI50 [58]: 3690 nM
- TGI [58]: 10400 nM
